# Data from patent publication US20240307299A1, “SELF-EMULSIFYING DRUG DELIVERY (SEDDS) FOR OPHTHALMIC DRUG DELIVERY” (priority 2015, published 2024).
# Where two headings read alike, the source gives them in different places.
# Tested on: New Zealand White female rabbits
# Type: in vivo
# Experimental: The ocular tolerability of the various pharmaceutical-grade excipients used in our formulations was evaluated in vivo using New Zealand White female rabbits. A total of ten test groups with three rabbits each were used to test the materials listed below in Table 16. Dosing in each group was done by instilling one drop of material at the lowest concentration into the left eye of the first rabbit. If not tolerated, dosing was stopped. If tolerated, one drop of the same concentration was instilled into the left eye of the second rabbit and then again for the third rabbit. If a concentration was tolerated by 3 rabbits, dosing continued in the same pattern with the next higher concentration, if applicable.
# Sample compositions, specifically, the vehicle used to dilute the materials tested, are listed in the next table (Table 17).
Compound,Concentration at which the not tolerated finding was seen (lowest concentration not tolerated) [%],"Concentration not tolerated (topical ocular, rabbits) [%]","Concentration at which the not tolerated finding was seen (rabbit, in vivo) [%]","Maximum Tolerated Concentration (rabbit, in vivo) [% w/w]","Reason Not Tolerated: Ocular discomfort (score) (rabbit, in vivo)"
CC(O)CO (centres unmarked) [Propylene Glycol],10,10,–,–,–
PEG 400,–,–,20,10,"+3, 1 Ocular discomfort seen at"
PEG (polyethylene glycol) 300 [PEG 300],–,–,10,–,–
polyoxyethylene sorbitan monooleate [PS80],–,–,40,30,–
